Laboratory results taken from article PMC10892984, “Novel Antineoplastic Inducers of Mitochondrial Apoptosis in Human Cancer Cells” (Molecules, 2024).

Test system: HL-60 (TB)
Settings: for CC50: read-out: LC50; for TGI: HL-60 (TB), leukemia, mutant p53, 48 h

Row | Structure (SMILES) | CC50 (Homo sapiens, HL-60, 48 h) | TGI | GI50 (Homo sapiens, HL-60, 48 h)
1 | c1cc(CNC23CC4CC(CC(C4)C2)C3)cc(C[N+](Cc2cccc(CNC34CC5CC(CC(C5)C3)C4)c2)(Cc2cccc(CNC34CC5CC(CC(C5)C3)C4)c2)Cc2cccc(CNC34CC5CC(CC(C5)C3)C4)c2)c1 (centres unmarked) [Compound 1, tetrakis{3-[(tricyclo[3.3.1.1^3,7]decan-1-ammonio)methyl]benzyl}ammonium pentachloride] | > 50000 nM |  | 
2 | COc1cc2c(c(OC)c1OC)-c1ccc(NNC(=S)N(Cc3cccc(C[N+](Cc4cccc(CNC56CC7CC(CC(C7)C5)C6)c4)(Cc4cccc(CNC56CC7CC(CC(C7)C5)C6)c4)Cc4cccc(CN(C(=S)NNc5ccc6c(cc5=O)C(NC(C)=O)CCc5cc(OC)c(OC)c(OC)c5-6)C56CC7CC(CC(C7)C5)C6)c4)c3)C34CC5CC(CC(C5)C3)C4)c(=O)cc1C(NC(C)=O)CC2 [Compound 3, [(bis{3-[(tricyclo[3.3.1.1^3,7]decan-1-ylamino)methyl]benzyl}ammonio)bis(methanediylbenzene-3,1-diylmethanediyl)]di-2-[(aS,7S)-7-(acetylamino)-1,2,3-trimethoxy-9-oxo-5,6,7,9-tetrahydrobenzo[a]heptalen-10-yl]-N-(tricyclo[3.3.1.1^3,7]decan-1-yl)hydrazinecarbothioamide chloride pentahydrate] |  | 1030 nM | 
3 | COc1cc2c(c(OC)c1OC)-c1ccc(NNC(N)=S)c(=O)cc1C(NC(C)=O)CC2 [Compound 2, N-[(aS,7S)-10-(2-carbamothioylhydrazinyl)-1,2,3-trimethoxy-9-oxo-5,6,7,9-tetrahydrobenzo[a]heptalen-7-yl]acetamide monohydrate × ⅔ (ethyl acetate)] | > 100000 nM | 1260 nM | 113 nM
